Square brackets hold non-standard residues; d marks the D form. Peptide text beside a SMILES is read from it. * marks the point of attachment. FITC = O=C1OC2(c3ccc(O)cc3Oc3cc(O)ccc32)c2ccc(NC(=S)*)cc21; Tyr(3-I) = N[C@@H](Cc1ccc(O)c(I)c1)C(=O)O
Assays:
HCC36 cells [1] = assay: Cellular retention of radioactivity of TAT-ΔNS3/4A-124I-FITC, gamma-counter; format: cell-based, Human; conditions: control HCC36 cells, 37 kBq probe 37°C 1 h, cultured 0, 4, 6, 8 h with washing, CPM normalized by protein
Description: (§1) HCC36 or NS3/4A-HCC36 (1 × 10^5) cells were seeded with DMEM containing 10% serum in a 24-well plate at 37°C in a CO2 incubator overnight. The cells were incubated with 37 kBq of TAT-ΔNS3/4A-^124I-FITC in the presence or absence of 2 μM telaprevir (Vertex, Cambridge MA) at 37°C for 1 h. After probe staining, the cells were washed using DMEM containing 10% serum per 20 min until the end of the experiment. At different time points, the cells were collected by treatment with trypsin. The radioactivity of the cells was then measured using a gamma-counter. The CPM was normalized by protein concentration.
(§2) FIGURE 4 Specificity and half-life of TAT-ΔNS3/4A-^124I-FITC. (A) NS3/4A-HCC36 and HCC36 cells were incubated with 37 kBq of TAT-ΔNS3/4A-^124I-FITC in the presence or absence of 2 μM Telaprevir at 37°C for 1 h. The cells were washed with DMEM containing 10% serum three times per hour. The cells were collected by treatment with trypsin at the indicated times. The radioactivity of the cells was then measured with a gamma-counter. The CPM was normalized by protein concentration. […] Error bar: standard error of triplicate determinations.

NS3/4A-HCC36 cells [2] = assay: as above; format: cell-based, Human
Description: as §1, §2

[3] = Blood kinetics (half-life) of TAT-ΔNS3/4A-124I-FITC in mice; parameters: species or system BALB/c nude mice; conditions: mouse, in vivo, iv, 3700 kBq; BALB/c mice, i.v., 4 h after injection, gamma-counter; read-out: radioactivity in the blood
Description: BALB/c nude mice (n = 3) were intravenously injected with 3,700 kBq TAT-ΔNS3/4A-^124I-FITC, and blood samples were periodically removed from the tail vein of the mice. The blood was weighed on an analytical balance and assayed for radioactivity in a multichannel gamma-counter. The initial and terminal half-life of the probe was estimated by fitting the data to a two-phase exponential decay model with Prism 4 software (GraphPad Software, San Diego, CA, USA).
as §2

[4] = tested on: NS3/4A-HCC36 and HCC36 tumors; assay: Micro-PET imaging of NS3/4A activity in xenograft mice (ROI analysis); format: in vivo, BALB/c nude mice; conditions: 6 h, n = 3
Description: BALB/c nude mice (n = 3) bearing established HCC36 and NS3/4A-HCC36 (100–200 mm^3) in their right and left hind leg, respectively, were anesthetized by halothane vapor with a vaporizer system. The mice were feed the Lugol’s solution and then intravenously injected with 3,700 kBq (in 100 μL) TAT-ΔNS3/4A-^124I-FITC. PET imaging was sequentially performed at 2, 4, and 6 h. To test the specificity of TAT-ΔNS3/4A-^124I-FITC, telaprevir (20 mg/kg/day for 3 days) or control vehicle was intraperitoneally injected into mice (n = 3) 3 days prior to TAT-ΔNS3/4A-^124I-FITC.
The mice were positioned in a micro-PET scanner (R4; Concorde Microsystems, Knoxville, Tenn) with their long axis parallel to the transaxial plane of the scanner. The scanner has a computer-controlled bed with a 10.8-cm transaxial and 8-cm axial field of view. It has no septa and operates exclusively in a three-dimensional list mode. All raw data were first sorted into three-dimensional sinograms, followed by Fourier rebinning and ordered-subsets expectation maximization image reconstruction. Fully three-dimensional list-mode data were collected by using an energy window of 350–750 keV and a time window of 6 nsec. Image pixel size was 0.85 mm transaxially, with a 1.21-mm section thickness. The region of interest was analyzed with ASIPro VM version 5.0 (Concorde Microsystems, Knoxville, TN, USA) analysis software. […]

[5] = tested on: NS3/4A-HCC36 and HCC36 tumors; assay: Biodistribution in xenograft mice, gamma-counter; format: in vivo, BALB/c nude mice
Description: (§3) In xenograft model, BALB/c nude mice bearing established NS3/4A-HCC36 and HCC36 tumors (n = 3) were intravenously injected with 3,700 kBq (in 100 μL) TAT-ΔNS3/4A-^124I-FITC. In orthotopic model, SCID mice (n = 3) with NS3/4A-HCC36 or HCC36 tumors implanted in the liver were intravenously also injected with 3,700 kBq (in 100 μL) TAT-ΔNS3/4A-^124I-FITC. Animals were killed after anesthesia with pentobarbital (65 mg/kg) at 2, 4, and 6 h. Radioactivity in isolated tumors and tissues was measured with a multichannel gamma-counter. The biodistribution of the probe was expressed as percentage injected dose per gram of tissue (%ID/g).
FIGURE 6 Biodistribution of TAT-ΔNS3/4A-^124I-FITC in xenograft mice. Mice bearing established NS3/4A-HCC36 and HCC36 tumors were injected with 3,700 kBq of TAT-ΔNS3/4A-^124I-FITC. Selected organs and tumors were removed from the mice after 2 (white column), 4 (black column), and 6 (gray column) h. The radioactivity of individual organs was measured using a gamma-counter and normalized for sample weights. The biodistribution of TAT-ΔNS3/4A-^124I-FITC in selected organs was expressed as percentage injected dose/g tissue. Data represent mean ± SEM.

[6] = tested on: liver-implanted NS3/4A-HCC36 or HCC36 tumors; assay: Micro-PET imaging in orthotopic liver implantation tumor model (ROI analysis); format: in vivo; conditions: SCID mice n = 3, i.v. 3,700 kBq, micro-PET 4 h
Description: The orthotopic liver implantation model was generated as previously described ([Kim et al., 2009]). The NS3/4A-HCC36 tumors or HCC36 tumors from the ectopic tumors were harvested and transplanted into the left liver lobe of SCID mice (n = 3). After 2 weeks, the mice were feed the Lugol’s solution, and then, the 3,700 kBq of TAT-ΔNS3/4A-^124I-FITC was intravenously injected.
The mice were positioned in a micro-PET scanner (R4; Concorde Microsystems, Knoxville, Tenn) with their long axis parallel to the transaxial plane of the scanner. The scanner has a computer-controlled bed with a 10.8-cm transaxial and 8-cm axial field of view. It has no septa and operates exclusively in a three-dimensional list mode. All raw data were first sorted into three-dimensional sinograms, followed by Fourier rebinning and ordered-subsets expectation maximization image reconstruction. Fully three-dimensional list-mode data were collected by using an energy window of 350–750 keV and a time window of 6 nsec. […] The region of interest was analyzed with ASIPro VM version 5.0 (Concorde Microsystems, Knoxville, TN, USA) analysis software.
FIGURE 7 Micro-PET Imaging of NS3/4A activity in orthotopic liver implantation model. […] (B) The accumulation of radioactivity in NS3/4A-HCC36 tumors and HCC36 tumors was measured using a gamma-counter at 2 (white column), 4 (black column), and 6 (gray column) h after probe injection. […]

[7] = tested on: liver-implanted NS3/4A-HCC36 or HCC36 tumors; assay: Radioactivity of liver-implanted tumors, gamma-counter; format: in vivo, SCID mice; conditions: orthotopic liver model, i.v. 3,700 kBq, 6 h
Description: as §3
FIGURE 7 Micro-PET Imaging of NS3/4A activity in orthotopic liver implantation model. The NS3/4A-HCC36 tumors or HCC36 tumors from the ectopic tumors were harvested and transplanted into the left liver lobe of SCID mice (n = 3). After 2 weeks, the 3,700 kBq of TAT-ΔNS3/4A-^124I-FITC was intravenously injected. (A) PET imaging was performed at 4 h after injection of the probe. (B) The accumulation of radioactivity in NS3/4A-HCC36 tumors and HCC36 tumors was measured using a gamma-counter at 2 (white column), 4 (black column), and 6 (gray column) h after probe injection. Data represent mean ± SEM. Student’s t-test analysis of data. Statistical analysis was compared NS3/4A-HCC36 with HCC36. P < 0.05 was considered statistically significant.

[8] = Long-term biodistribution in xenograft mice; format: in vivo; conditions: i.v. 3,700 kBq, gamma-counter
Description: Supplementary file Image_4.TIF: Supplementary Figure 4 Long-term biodistribution of TAT-ΔNS3/4A-^124I-FITC in xenograft mice. Mice were injected with 3,700 kBq of TAT-ΔNS3/4A-^124I-FITC. Selected organs and tumors were removed from the mice after 4, 12, and 24 h. The radioactivity of individual organs was measured using a gamma-counter and normalized for sample weights. The biodistribution of TAT-ΔNS3/4A-^124I-FITC in selected organs was expressed as percentage injected dose/g tissue. Data represent mean ± SEM. Click here for additional data file.

HCC36 cells [9] = assay: Specific retention of probe via flow cytometry; format: cell-based, Human; conditions: control HCC36 cells, 10 μM probe 1 h, washed three times per hour, 8 h
Description: (§4) We also used the WT probe (GRKKRRQRRR-[…]-LKKKYK-FITC) and the scrambled sequence probe (GRKKRRQRRR-[…]-LKKKYK) that could not be activated by protease as a control group to test the specific retention of probe via flow cytometry. HCC36 cells, NS3/4A-HCC36 cells, or JFH-1-infected HCC36 cells were incubated with 10 μM TAT-ΔNS3/4A-FITC or 10 μM TAT-scrambled NS3/4A-FITC in the absence or presence of 2 μM telaprevir (NS3/4A protease inhibitor) at 37 °C for 1 h. The cells were washed with DMEM containing 10% serum three times per hour. After culturing for 1 or 8 h, the fluorescence of viable cells was observed via flow cytometry.
(§5) Supplementary file Image_5.TIF: Supplementary Figure 5 To evaluate the specific retention of probe via flow cytometry, we used the WT probe (GRKKRRQRRR-[…]-LKKKYK-FITC) and the scrambled sequence probe (GRKKRRQRRR-[…]-LKKKYK) that could not be activated by protease as a control group to test the specific retention of probe via flow cytometry. HCC36 cells, NS3/4A-HCC36 cells, or JFH-1-infected HCC36 cells were incubated with 10 μM TAT-ΔNS3/4A-FITC or 10 μM TAT-scrambled NS3/4A-FITC in the absence or presence of 2 μM telaprevir (NS3/4A protease inhibitor) at 37°C for 1 h. The cells were washed with DMEM containing 10% serum three times per hour. After culturing for 1 or 8 h, the fluorescence of viable cells was observed via flow cytometry. Click here for additional data file.

[10] = tested on: JFH-1-infected HCC36 cells; assay: Specific retention of probe via flow cytometry; format: cell-based, Human; conditions: 10 μM probe 1 h, washed three times per hour, 8 h
Description: as §4, §5

NS3/4A-HCC36 cells [11] = assay: Specific retention of probe via flow cytometry; format: cell-based, Human; conditions: 10 μM probe 1 h, washed three times per hour, 8 h
Description: as §4, §5

Row | Compound | radioactivity retained in the cells (HCC36 cells [1]) | radioactivity retained in the cells (NS3/4A-HCC36 cells [2]; 37 kBq probe 37°C 1 h, cultured 0, 4, 6, 8 h with washing, CPM normalized by protein) | radioactivity retained in the cells after inhibitor treatment (NS3/4A-HCC36 cells [2]; 37 kBq probe + 2 μM telaprevir) | tissue uptake at 4 h [3] [%ID/g] | ROI radioactivity, NS3/4A-HCC36 tumors vs HCC36 tumors ([4]; i.v. 3,700 kBq) [fold] | ROI radioactivity, NS3/4A-HCC36 tumors vs HCC36 tumors, after inhibitor treatment ([4]; telaprevir 20 mg/kg/day i.p. for 3 days before probe) [fold] | radioactivity in normal organs (stomach, kidneys) ([5]; i.v. 3,700 kBq, 2, 4, 6 h) | accumulation of radioactivity, NS3/4A-HCC36 tumors vs HCC36 tumors ([5]; i.v. 3,700 kBq, 6 h, %ID/g, n = 3) [fold] | ROI, implanted NS3/4A-HCC36 tumors vs HCC36 tumors [6] [fold] | uptake of radioactivity, implanted NS3/4A-HCC36 tumors vs implanted HCC36 tumors [7] [fold] | radioactivity in tissues at 24 h ([8]; 24 h) | long-term accumulation of probe in kidney (and stomach) ([8]; organs at 4, 12, 24 h) | fluorescence retention after culturing for 8 h (HCC36 cells [9]) | fluorescence retention after culturing for 8 h [10] | fluorescence retention after culturing for 8 h (NS3/4A-HCC36 cells [11])
1 | CSCC[C@H](NC(=O)[C@H](CCC(=O)O)NC(=O)[C@H](CC(=O)O)NC(=O)[C@H](CCC(=O)O)NC(=O)[C@H](CC(=O)O)NC(=O)[C@H](CCC(=O)O)NC(=O)[C@H](CC(=O)O)NC(=O)[C@H](CCC(=O)O)NC(=O)[C@H](CC(=O)O)NC(=O)[C@H](CCCNC(=N)N)NC(=O)[C@H](CCCNC(=N)N)NC(=O)[C@H](CCCNC(=N)N)NC(=O)[C@H](CCC(N)=O)NC(=O)[C@H](CCCNC(=N)N)NC(=O)[C@H](CCCNC(=N)N)NC(=O)[C@H](CCCCN)NC(=O)[C@H](CCCCN)NC(=O)[C@H](CCCNC(=N)N)NC(=O)CN)C(=O)N[C@@H](CCC(=O)O)C(=O)N[C@@H](CCC(=O)O)C(=O)N[C@@H](CS)C(=O)N[C@@H](C)C(=O)N[C@@H](CO)C(=O)N[C@@H](Cc1c[nH]cn1)C(=O)N[C@@H](CC(C)C)C(=O)N[C@@H](CCCCN)C(=O)N[C@@H](CCCCN)C(=O)N[C@@H](CCCCN)C(=O)N[C@@H](Cc1ccc(O)c(I)c1)C(=O)N[C@@H](CCCCNC(=S)Nc1ccc2c(c1)C(=O)OC21c2ccc(O)cc2Oc2cc(O)ccc21)C(=O)O [TAT-ΔNS3/4A-^124I-FITC] (H-GRKKRRQRRRDEDEDEDEMEECASHLKKK[Tyr(3-I)]K(FITC)-OH; N-terminus and C-terminus assumed) | not in control HCC36 cells | A high level of radioactivity was detected | radioactivity did not accumulate | 2.6 ± 0.1 | 2.53 | 1.31 | high levels of radioactivity were observed in the stomach and kidneys | 2.7 | 4.75 | 3.1 | did not accumulate in the all of tissues at 24 h | accumulation of probe in kidney and in stomach would quickly reduce at 12 and 24 h | – | – | –
2 | GRKKRRQRRR-ECEEEEESMDDDAH-LKKKYK [scrambled sequence probe] | – | – | – | – | – | – | – | – | – | – | – | – | cannot be accumulated in each cell | cannot be accumulated in each cell | cannot be accumulated in each cell
